Values of other authors in patent publication US20220184095A1 (Mylan Specialty L.P., priority 2019, published 2022).

Conditions: orally delivered, humans

## Cc1cnc(NC(=O)C2=C(O)c3ccccc3S(=O)(=O)N2C)s1 [meloxicam, 4-hydroxy-2-methyl-N-(5-methyl-2-thiazolyl)-2H-1,2-benzothiazine-3-carboxamide-1,1-dioxide]
  Tmax (time to reach maximum concentration): 4 to 6 h
  time to reach the therapeutic concentration that enables the onset of action: 2 to 3 h
